Tests used:
[1] = parameters: method as in PMID 29344250; details: rats; cited from earlier work
[2] = biological target: T1, cynomolgus monkey AR (Macaca fascicularis, UniProt O97952); experiment: AR reporter assay (MMTV-luc) in COS7 cells expressing monkey AR; format: cell-based
T1 construct: expressed in transfected cells; host or cells: COS7
T1 sequence (O97952 1-895): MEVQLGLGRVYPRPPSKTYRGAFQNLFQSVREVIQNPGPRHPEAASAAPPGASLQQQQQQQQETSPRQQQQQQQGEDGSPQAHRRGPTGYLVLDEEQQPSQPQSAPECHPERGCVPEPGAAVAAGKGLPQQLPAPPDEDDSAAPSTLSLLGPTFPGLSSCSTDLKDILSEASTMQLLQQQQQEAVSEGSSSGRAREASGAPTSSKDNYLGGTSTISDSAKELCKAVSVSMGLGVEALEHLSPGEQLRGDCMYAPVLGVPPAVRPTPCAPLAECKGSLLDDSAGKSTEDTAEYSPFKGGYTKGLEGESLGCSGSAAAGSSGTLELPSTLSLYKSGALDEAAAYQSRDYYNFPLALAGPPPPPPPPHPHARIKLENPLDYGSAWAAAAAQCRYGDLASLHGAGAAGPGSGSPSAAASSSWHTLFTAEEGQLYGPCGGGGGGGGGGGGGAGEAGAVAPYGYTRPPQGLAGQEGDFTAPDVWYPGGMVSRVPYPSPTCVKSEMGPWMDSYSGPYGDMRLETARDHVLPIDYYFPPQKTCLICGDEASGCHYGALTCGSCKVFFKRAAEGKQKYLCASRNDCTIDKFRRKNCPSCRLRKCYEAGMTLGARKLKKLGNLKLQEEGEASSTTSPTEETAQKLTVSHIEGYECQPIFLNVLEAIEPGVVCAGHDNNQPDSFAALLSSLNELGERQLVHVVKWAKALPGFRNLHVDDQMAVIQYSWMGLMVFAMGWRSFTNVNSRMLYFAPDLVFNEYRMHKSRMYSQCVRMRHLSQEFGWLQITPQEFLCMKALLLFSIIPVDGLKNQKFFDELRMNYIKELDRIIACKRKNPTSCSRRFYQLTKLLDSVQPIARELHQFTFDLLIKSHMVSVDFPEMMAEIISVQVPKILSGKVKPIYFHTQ
Method: Two hours post‐transfection, the cells were plated in 96‐well plates at a density of 2 × 10^4 cells/well, and cultured at 37°C for 3 hours. […] Luciferase activity was measured using the Steady‐Glo Luciferase assay system (Promega) and an Envision Multimode Plate Reader (PerkinElmer).
In the reporter assays, EC50 was calculated using Graph Pad Prism version 6. The effects of SARM‐2f or TE on BW and LBM were analyzed by t test, with Bonferroni correction for repeated measurements.

[3] = parameters: method as in PMID 28454849; details: rats, cited from earlier work

Which “dose sufficient to increase BW” value [1] does the source give for `CC[C@H]1[C@@H](O)CC(=O)N1c1ccc(C#N)c(C(F)(F)F)c1` [SARM‐2f, 4′‐[(2S,3S)‐2‐Ethyl‐3‐hydroxy‐5‐oxopyrrolidin‐1‐yl]‐2′‐(trifluoromethyl) benzonitrile] here?
The value was 0.3 mg/kg.

What about the EC50 ([2]; monkey AR reporter assay (abstract), read-out: EC50) of the same molecule?
Its EC50 is 3 nM.

What about the “maximal AR activation” value ([2]; monkey AR, at 1 μmol/L, 1 μmol/L DHT = 100%) of the same molecule?
Its value is 125%.

What about the Vdss ([3]; intravenous administration at 0.1 mg/kg) of the same molecule?
The Vdss was 2167 mL/kg.

What about the “AUC 0‐24 h” value ([3]; single oral administration at 1 mg/kg) of the same molecule?
Its value is 809.4 ng·h/mL.

And the “MRT (Mean Residence Time)” value [3]?
Its value is 3.06 h.
